Measurements taken from patent US11666657B2, “Protein-drug conjugates and their use in the treatment of cancers” (UNIVERSITE DE STRASBOURG, priority 2017, dated 2023).
Values joined by “and” are separate entries in the source; they are usually repeats but may differ in a detail not shown here. Equal entries are not always repeated.

Columns and labels:
HER2+ SK-BR-3 cells = assay: In vitro efficacy on cell viability (CellTiter 96 AQueous One Solution Cell Proliferation Assay), HER2+ SK-BR-3; assay type: cell-based; conditions: 96 hrs treatment
Experimental: Antiproliferative activity of the ADCs according to this invention was evaluated on two cell lines and compared with that of the commercial ADC Kadcyla® (T-DM1).
HER2^+ SK-BR-3 and HER2^− MDA-MB-231 cell lines were grown in DMEM—high glucose (4,500 mg/L) supplemented with 10% fetal calf serum, Penicillin (200 U/mL)-Streptomycin (200 μg/mL) and L-glutamin (4 mM) (all from Sigma Aldrich, St Louis, Mo., USA). The effects of the payloads and ADCs on these cell lines were assessed using CellTiter 96® AQueous One Solution Cell Proliferation Assay (Promega, Madison, Wis., USA). The cytotoxic agent MMAE was used as a positive control of cell death and every condition was performed as triplicates. SKBR-3 cells were plated in 96-well plates at 3,000 cells/well for ADC tests and at 5,000 cells/well for payload tests, in 100 μL medium. MDA-MB231 cells were plated in 96-well plates at 15,000 cells/well, in 100 μL medium. The cells were allowed to adhere for 24 hrs at 37° C. in a humidified atmosphere of 5% CO2. Medium was then removed and replaced by payloads, ADCs, or MMAE, at different concentrations in fresh medium. […] Absorbance was measured at 515 nm using a 96-well plate reader (Flx-Xenius XM, Safas, Monaco), and to estimate the percentage of viable cells according to each treatment, the negative controls were considered as 100% viability. […]

[1] = tested on: BT-474 ductal carcinoma tumors; assay: In vivo anti-tumour efficacy in nude mice bearing subcutaneous BT-474 tumors; design: species or system Balb/c nude mice; conditions: single i.v. injection 1 mg/kg, BT-474 tumours in nude mice, versus control group
Experimental: In vivo therapeutic efficacy of the ADCs of this invention was evaluated in nude mice bearing subcutaneous BT-474 tumors.
Twenty (20) 6 to 8 week-old Balb/c nude (CByJ.Cg-Foxn1nu/J) females (Charles River Laboratories, L'Arbresles, France) were implanted with BT-474 ductal carcinoma cells (2×10^7) suspended in 200 μL RPMI 1640 medium (Sigma Aldrich) containing matrigel (50:50, v:v, BD Biosciences, France). The injection was performed subcutaneously in the right flank. One day prior implant, the animals were gamma irradiated (2 Gy, ^60Co). The cell transplant was considered as day 0 (D0). Once tumours reached a volume of 200-300 mm^3, mice were randomized according to their individual tumour volume into four distinct groups. The variance of mouse distribution within the groups was analysed to confirm the homogeneity of the groups.
Animal viability, behaviour and well-being were recorded daily; body weight was measured twice a week; and tumour volume was assessed twice a week with a calliper. The volume of the tumour was estimated formula as follow: volume=(width^2×length)/2.
Relative tumour volumes (RTV) were calculated according to the following formula:
Specifically, a principal component analysis (PCA) was carried out using XL Stat software (Addinsoft, Paris, France) in order to compare antitumour activity of T-DM1 and T-APN-Gal-MMAE. […]

Substance: trastuzumab emtansine [T-DM1]
- IC50 (HER2+ SK-BR-3 cells): 0.033 nM and 0.0342 nM
- effect on tumour growth [1]: not statistically significant
